Several values for one entry are separate records, joined by “and”; a condition that tells them apart may be missing. Equal values may be shown once.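 All cell lines were grown in 96-well plates and treated with compound for 48 hours. Abbreviation: GI50, concentration required for 50% inhibition of growth. Definition used: TGI = concentration required for complete inhibition of growth.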
What was measured:
Assay in all cases: NCI tumour cell line growth inhibition, 48 h
SK-MEL-5 melanoma = test system: SK-MEL-5 melanoma
SNB-75 CNS = test system: SNB-75 CNS
M14 melanoma = test system: M14 melanoma
K-562 leukemia = test system: K-562 leukemia
MALME-3M melanoma = test system: MALME-3M melanoma
OVCAR-8 ovarian = test system: OVCAR-8 ovarian
HT29 colon = test system: HT29 colon
COLO 205 colon = test system: COLO 205 colon
786-0 renal = test system: 786-0 renal
HCT-15 colon = test system: HCT-15 colon

| Compound | GI50 (SK-MEL-5 melanoma) | TGI (SK-MEL-5 melanoma) | GI50 (SNB-75 CNS) | TGI (SNB-75 CNS) | GI50 (M14 melanoma) | TGI (M14 melanoma) | GI50 (K-562 leukemia) | TGI (K-562 leukemia) | GI50 (MALME-3M melanoma) | TGI (MALME-3M melanoma) | GI50 (OVCAR-8 ovarian) | TGI (OVCAR-8 ovarian) | GI50 (HT29 colon) | GI50 (COLO 205 colon) | TGI (COLO 205 colon) | GI50 (786-0 renal) | TGI (786-0 renal) | GI50 (HCT-15 colon) | TGI (HCT-15 colon) | TGI (HT29 colon) |
| --- | --- | --- | --- | --- | --- | --- | --- | --- | --- | --- | --- | --- | --- | --- | --- | --- | --- | --- | --- | --- |
| CN1CCN(C(=O)c2ccc(NC(=O)Nc3ccc(-c4nc(N5CCOCC5)c5cccn5n4)cc3)cc2)CC1 | 0.0803 µM | 0.394 µM | 0.0134 µM | 0.0684 µM | 0.0966 µM | 10.3 µM | 0.0963 µM | 14.7 µM | 0.0295 µM | 0.194 µM | 0.0486 µM | > 100 µM | 0.0487 µM | 0.0414 µM | 1.38 µM | 0.0632 µM | 1.11 µM | 0.548 µM | 12.6 µM |  |
| O=C1NC(=O)C(c2cccc(Cl)c2)=C1Nc1ccc(Cl)c(C(=O)O)c1 | > 25 µM | > 25 µM | > 25 µM | > 25 µM | > 25 µM | > 25 µM | > 25 µM | > 25 µM | > 25 µM | > 25 µM | > 25 µM | > 25 µM | > 25 µM | > 25 µM | > 25 µM | > 25 µM | > 25 µM | > 25 µM | > 25 µM | > 25 µM |
| COC(=O)CC1(O)C=CC(=O)C=C1 |  | 10.3 µM |  | 14.2 µM |  | 16.6 µM |  | > 100 µM |  | 6.9 µM |  | 17.3 µM |  |  | 17.8 µM |  | 6.89 µM |  | 8.76 µM | 17.6 µM |
| N#C/C(=C/N1CCN(C(=O)c2ccco2)C1=S)C(=O)Nc1ccc(Cl)cc1 | 11.2 µM | 24.7 µM | > 50 µM | > 50 µM | 14.2 µM | > 50 µM | 16.1 µM | > 50 µM | 21.4 µM | > 50 µM | 20.6 µM | > 50 µM | 21.4 µM | 25.6 µM | > 50 µM | 17.4 µM | > 50 µM | 21.3 µM | > 50 µM | > 50 µM |
| CN1CCN(CCCOc2ccc3nc(Nc4ccc(F)c(F)c4)ccc3c2)CC1 | 1.47 µM | 2.88 µM | 1.35 µM | 4.05 µM | 1.74 µM | 3.68 µM | 1.37 µM | 5.25 µM | 1.15 µM | 3.06 µM | 3.6 µM | 12.5 µM | 0.822 µM | 1.72 µM | 3.69 µM | 1.62 µM | 3.3 µM | 1.29 µM | 3.33 µM | 2.32 µM |
| Nc1c(C(=O)c2cccc(C(O)CO)c2)cnn1-c1ccc(F)cc1 (stereo unspecified) | > 25 µM | > 25 µM | > 25 µM | > 25 µM | > 25 µM | > 25 µM | > 25 µM | > 25 µM | > 25 µM | > 25 µM | > 25 µM | > 25 µM | > 25 µM | > 25 µM | > 25 µM | > 25 µM | > 25 µM | > 25 µM | > 25 µM | > 25 µM |
| O=S(=O)(/N=S(/Nc1ccccc1)C(F)(F)Cl)c1ccccc1 (stereo unspecified) |  | > 100 µM |  | > 100 µM |  | > 100 µM |  | > 100 µM |  | > 100 µM |  | > 100 µM |  |  | > 100 µM |  | > 100 µM |  | > 100 µM | > 100 µM |
| COc1ccc2c(c1O)[C@@]13CCCC=C1[C@@H](C2)[N+](C)(C)CC3 |  | > 100 µM |  | > 100 µM |  | > 100 µM |  | > 100 µM |  | > 100 µM |  | > 100 µM |  |  | > 100 µM |  | > 100 µM |  | > 100 µM | > 100 µM |
| CC12CCC(=O)C(O1)C1C(=O)c3ccc4c(ccc5ccccc54)c3C(=O)C12 (stereo unspecified) | 1.63 µM | 3.3 µM | 20.5 µM | 54 µM | 12.2 µM | 30.6 µM | 1.72 µM | 7.3 µM | 0.945 µM | 4.4 µM | 4.27 µM | 12.7 µM | 13.2 µM | 2.13 µM | > 59.1 µM | 2.35 µM | 6.01 µM | 14.2 µM | 30.6 µM | > 100 µM |
| CCC[CH2][Sn]([CH2]CCC)([CH2]CCC)/[C](=C/[Si](C)(C)c1ccccc1)c1ccc2c(c1)OCO2 | 15.8 µM | 30.1 µM | 58.5 µM | > 100 µM | 16.8 µM | 35.2 µM | 22.9 µM | 73.9 µM | 3.2 µM | 15 µM | 19.1 µM | 37.9 µM | 19.2 µM | 18.7 µM | 39 µM | 16 µM | 30.9 µM | 20.5 µM | 51.8 µM | 55.3 µM |
| COc1cc(/C=C/C(=O)CC(=O)/C=C/c2cc(OC)c(O)c(OC)c2)cc(OC)c1O | 13.2 µM | 25 µM and 36.4 µM |  | 61.4 µM | 10.4 µM | 25 µM and 28 µM |  | 25 µM and > 100 µM | 14.8 µM | 25 µM and 30.6 µM | 18 µM | 25 µM and 61.3 µM | 26.3 µM | 19.3 µM | 25 µM and 40.2 µM | 38.6 µM | 25 µM and > 100 µM |  | > 25 µM and 90.4 µM | 25 µM and > 100 µM |
| COc1cc2c(cc1OC)C(C(CBr)CBr)N(C1CCCC1)CC2 (stereo unspecified) |  | > 100 µM |  | > 100 µM |  | > 100 µM |  | > 100 µM |  | > 100 µM |  | > 100 µM |  |  | > 100 µM |  | > 100 µM |  | > 100 µM | > 100 µM |
| CC(C)N(C(=O)C12C3C4C5(C(=O)O)C(C1C35I)C42C(=O)O)C(C)C (stereo unspecified) |  | > 100 µM |  | > 100 µM |  | > 100 µM |  | > 100 µM |  | > 100 µM |  | > 100 µM |  |  | > 100 µM |  | > 100 µM |  | > 100 µM | > 100 µM |
| Nc1nc(Cl)nc2c1ncn2C1OC(CO)C(O)C1F (stereo unspecified) | 0.168 µM | > 8.7 µM | 0.731 µM | > 26.1 µM | 0.024 µM | 0.0889 µM | 0.426 µM | > 100 µM | 0.195 µM | > 46.2 µM | 0.0292 µM | > 100 µM | 0.445 µM | 0.0951 µM | > 100 µM | 0.0876 µM | 13.6 µM | 5.96 µM | > 100 µM | > 100 µM |
| Cc1ccc(SSCC(O)C(O)CSSc2ccc(C)cc2)cc1 (stereo unspecified) |  | 25.6 µM and 19.9 µM | 5.97 µM and 16.2 µM | 22.2 µM and 31.8 µM |  | 18.9 µM and 21.6 µM | 4.84 µM and 15.3 µM | 28.3 µM and 46.8 µM |  | 36 µM and 30.7 µM | 4.21 µM and 17.4 µM | 14.6 µM and 31.2 µM |  | 1.99 µM and 14.2 µM | 3.75 µM and 27.3 µM | 5.15 µM and 12.4 µM | 17.5 µM and 24.9 µM |  | 28.2 µM and 27.7 µM | 27.8 µM and 49.8 µM |

From PubChem BioAssay (NCI)
